In PubChem BioAssay AID256 (DTP/NCI, 2004) one finds T/C data, which are given here for 23 compounds.

The assay has as its system CD2F1 mice, L1210 leukemia ip, survival T/C. Nature of the assay: NCI In Vivo Anticancer Drug Screen. Data for tumor model L1210 Leukemia (intraperitoneal) in CD2F1 (CDF1) mice. The note with it: higher = longer survival. The gist of the method: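 Each value reflects a quotient of treated over vehicle control outcomes in mice with a transplanted tumor.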
[1] abbreviates: endpoint: mean survival time, dose: 100.0 mg/kg/injection, schedule: Q01DX001 (ip), vehicle: saline with Tween-80.
Where [2] appears, read: endpoint: mean survival time, dose: 200.0 mg/kg/injection, schedule: Q01DX001 (ip), vehicle: saline with Tween-80.
[3] abbreviates: endpoint: mean survival time, dose: 400.0 mg/kg/injection, schedule: Q01DX001 (ip), vehicle: saline with Tween-80.
Setting [4] is: endpoint: mean survival time, dose: 100.0 mg/kg/injection, schedule: Q04DX003 (ip), vehicle: saline with Tween-80.
[5] abbreviates: endpoint: mean survival time, dose: 200.0 mg/kg/injection, schedule: Q04DX003 (ip), vehicle: saline with Tween-80.
The mark [6] stands for this setting: endpoint: mean survival time, dose: 100.0 mg/kg/injection, schedule: Q01DX009 (ip), vehicle: saline.
[7] abbreviates: endpoint: mean survival time, dose: 200.0 mg/kg/injection, schedule: Q01DX009 (ip), vehicle: saline.
The mark [8] stands for this setting: endpoint: mean survival time, dose: 400.0 mg/kg/injection, schedule: Q01DX009 (ip), vehicle: saline.
[9] abbreviates: endpoint: mean survival time, dose: 100.0 mg/kg/injection, schedule: Q01DX009 (ip), vehicle: other.
Where [10] appears, read: endpoint: mean survival time, dose: 100.0 mg/kg/injection, schedule: Q01DX009 (ip), vehicle: saline with Tween-80.
Where [11] appears, read: endpoint: mean survival time, dose: 200.0 mg/kg/injection, schedule: Q01DX009 (ip), vehicle: saline with Tween-80.
Where [12] appears, read: endpoint: mean survival time, dose: 50.0 mg/kg/injection, schedule: Q01DX009 (ip), vehicle: saline with Tween-80.

Values joined by “and” are separate entries in the source; they are usually repeats but may differ in a detail not shown here. Equal entries are not always repeated. Toxic doses and inconclusive results are not listed.

With `CC1CCC[N-]C1.CC1CCC[N-]C1.CC1CCC[N-]C1.CC1CCC[N-]C1.[Cl][Rh][Cl]` (stereo unspecified), the T/C runs as follows: (endpoint: mean survival time, dose: 4.0 mg/kg/injection, schedule: Q01DX009 (ip), vehicle: saline) 109 % of control; (endpoint: mean survival time, dose: 6.0 mg/kg/injection, schedule: Q01DX009 (ip), vehicle: saline) 122 % of control; (endpoint: mean survival time, dose: 9.0 mg/kg/injection, schedule: Q01DX009 (ip), vehicle: saline) 114 % of control.
As to `COc1cc2c3c(c1)/C(=N\NC(N)=S)CCN3CCC2`, the T/C by setting is: under setting [1], 93 % of control; under setting [2], 105 % of control; under setting [3], 93 % of control.
Turning to `CN(C(=O)c1c(Cl)n(C)c2ccccc12)c1ccccc1`, the T/C is 98 % of control (endpoint: mean survival time, dose: 25.0 mg/kg/injection, schedule: Q04DX003 (ip), vehicle: Klucel (hydroxypropylcellulose) (HPC)); 101 % of control (endpoint: mean survival time, dose: 50.0 mg/kg/injection, schedule: Q04DX003 (ip), vehicle: Klucel (hydroxypropylcellulose) (HPC)); 104 % of control (endpoint: mean survival time, dose: 100.0 mg/kg/injection, schedule: Q04DX003 (ip), vehicle: Klucel (hydroxypropylcellulose) (HPC)).
For `COc1cc2cc[n+](C)cc2cc1OC`, the T/C is, setting by setting: (endpoint: mean survival time, dose: 25.0 mg/kg/injection, schedule: Q01DX009 (ip), vehicle: water) 98 % of control; (endpoint: mean survival time, dose: 50.0 mg/kg/injection, schedule: Q01DX009 (ip), vehicle: water) 103 % of control; (endpoint: mean survival time, dose: 100.0 mg/kg/injection, schedule: Q01DX009 (ip), vehicle: water) 101 % of control.
In the case of `O=C(O)CCNc1ccc2c(c1)B(O)OC2`, the T/C was 98 % of control under setting [4]; 101 % of control under setting [5]; 98 % of control (endpoint: mean survival time, dose: 400.0 mg/kg/injection, schedule: Q04DX003 (ip), vehicle: saline with Tween-80).
Regarding `CCOC(=O)CN1CCC(C2(c3cc4ccccc4[nH]3)OCCO2)CC1`, the T/C was 102 % of control under setting [1], 102 % of control under setting [2] and 102 % of control under setting [3].
For `C#CC(C)(C)CC(=O)O`, the T/C under setting [6] is 102 % of control, the T/C under setting [7] is 101 % of control and the T/C under setting [8] is 98 % of control.
Turning to `CC(C)OC(=O)Nc1cc(F)ccc1F`, the T/C was 97 % of control under setting [9] and 94 % of control (endpoint: mean survival time, dose: 200.0 mg/kg/injection, schedule: Q01DX009 (ip), vehicle: other).
`CC(=O)Nc1ccc(S(=O)(=O)N(CCO)CCO)cc1`: the T/C was 100 % of control under setting [1]; 100 % of control (endpoint: mean survival time, dose: 100.0 mg/kg/injection, schedule: Q01DX009 (ip), vehicle: saline sonified); 102 % of control under setting [2]; 95 % of control (endpoint: mean survival time, dose: 200.0 mg/kg/injection, schedule: Q01DX009 (ip), vehicle: saline sonified); 98 % of control under setting [3]; 97 % of control (endpoint: mean survival time, dose: 400.0 mg/kg/injection, schedule: Q01DX009 (ip), vehicle: saline sonified).
Take `O=C([O-])CC[n+]1ccn(CCC(=O)O)c1`: the T/C by setting is: (endpoint: mean survival time, dose: 100.0 mg/kg/injection, schedule: Q04DX003 (ip), vehicle: saline) 109 % of control; (endpoint: mean survival time, dose: 200.0 mg/kg/injection, schedule: Q04DX003 (ip), vehicle: saline) 103 % of control; (endpoint: mean survival time, dose: 400.0 mg/kg/injection, schedule: Q04DX003 (ip), vehicle: saline) 111 % of control.
As to `C/C=C1/C[C@@H](C)[C@@](C)(O)C(=O)OCC2=CCN3CC[C@@H](OC1=O)[C@@H]23`, the T/C was 103 % of control (endpoint: mean survival time, dose: 50.0 mg/kg/injection, schedule: Q04DX003 (ip), vehicle: saline with Tween-80); 103 % of control under setting [4]; 98 % of control under setting [5].
Take `BrCC12CCC1(CBr)COC2` (stereo unspecified): the T/C reads like this: (endpoint: mean survival time, dose: 100.0 mg/kg/injection, schedule: Q04DX003 (ip), vehicle: other) 102 % of control; (endpoint: mean survival time, dose: 200.0 mg/kg/injection, schedule: Q04DX003 (ip), vehicle: other) 107 % of control; (endpoint: mean survival time, dose: 400.0 mg/kg/injection, schedule: Q04DX003 (ip), vehicle: other) 96 % of control.
As for `COc1ccc(OC)c(NC(=O)N2CCCC(C)C2)c1` (stereo unspecified), the T/C was 95 % of control (endpoint: mean survival time, dose: 88.0 mg/kg/injection, schedule: Q01DX009 (ip), vehicle: other); 124 % of control under setting [9]; 95 % of control (endpoint: mean survival time, dose: 133.0 mg/kg/injection, schedule: Q01DX009 (ip), vehicle: other); 95 % of control (endpoint: mean survival time, dose: 300.0 mg/kg/injection, schedule: Q01DX009 (ip), vehicle: other).
For `COc1nc(N)nc2c1nnn2C1OC(CO)C(O)C1O` (stereo unspecified), the T/C (endpoint: mean survival time, dose: 50.0 mg/kg/injection, schedule: Q01DX009 (ip), vehicle: Klucel (hydroxypropylcellulose) (HPC)) is 117 % of control.
As for `CCOc1cc(C)cc(C(=O)O)c1`, the T/C (endpoint: mean survival time, dose: 100.0 mg/kg/injection, schedule: Q04DX002 (ip), vehicle: saline with Tween-80) is 97 % of control; the T/C (endpoint: mean survival time, dose: 200.0 mg/kg/injection, schedule: Q04DX002 (ip), vehicle: saline with Tween-80) was 90 % of control; the T/C (endpoint: mean survival time, dose: 400.0 mg/kg/injection, schedule: Q04DX002 (ip), vehicle: saline with Tween-80) is 97 % of control.
As to `COc1ccc2nc3cc(Cl)ccc3c(Nc3ccc(C(O)CCN(C)C)cc3)c2c1` (stereo unspecified), the T/C by setting is: (endpoint: mean survival time, dose: 75.0 mg/kg/injection, schedule: Q01DX001 (ip), vehicle: saline) 92 % of control; (endpoint: mean survival time, dose: 150.0 mg/kg/injection, schedule: Q01DX001 (ip), vehicle: saline) 92 % of control; (endpoint: mean survival time, dose: 300.0 mg/kg/injection, schedule: Q01DX001 (ip), vehicle: saline) 90 % of control.
Take `[Cl][Pt+2][Cl].[NH-]c1ccc([N+](=O)[O-])cc1[NH-]`: the T/C reads like this: (endpoint: mean survival time, dose: 2.5 mg/kg/injection, schedule: Q01DX009 (ip), vehicle: saline with Tween-80) 103 % of control; (endpoint: mean survival time, dose: 5.0 mg/kg/injection, schedule: Q01DX009 (ip), vehicle: saline with Tween-80) 102 % of control; (endpoint: mean survival time, dose: 10.0 mg/kg/injection, schedule: Q01DX009 (ip), vehicle: saline with Tween-80) 103 % of control; (endpoint: mean survival time, dose: 20.0 mg/kg/injection, schedule: Q01DX009 (ip), vehicle: saline with Tween-80) 105 % of control and 107 % of control; (endpoint: mean survival time, dose: 40.0 mg/kg/injection, schedule: Q01DX009 (ip), vehicle: saline with Tween-80) 106 % of control and 111 % of control; (endpoint: mean survival time, dose: 80.0 mg/kg/injection, schedule: Q01DX009 (ip), vehicle: saline with Tween-80) 96 % of control.
In the case of `CCOC(=O)Nc1cc(F)cc(C(F)(F)F)c1F`, the T/C reads like this: under setting [10], 97 % of control; under setting [11], 97 % of control; (endpoint: mean survival time, dose: 400.0 mg/kg/injection, schedule: Q01DX009 (ip), vehicle: saline with Tween-80) 109 % of control.
As for `CC(CO)(CO)[N+](=O)[O-]`, the T/C is 98 % of control under setting [6], 102 % of control under setting [7] and 104 % of control under setting [8].
Consider `Nc1nc(N)c2ncn(C3CC(CO)C(O)C3O)c2n1` (stereo unspecified), for which the T/C under setting [12] is 89 % of control.
Consider `COC(=O)CC(N)C(=O)O` (stereo unspecified), for which the T/C was 100 % of control (endpoint: median survival time, dose: 6.25 mg/kg/injection, schedule: Q01DX009 (ip), vehicle: saline); 97 % of control (endpoint: median survival time, dose: 12.5 mg/kg/injection, schedule: Q01DX009 (ip), vehicle: saline); 98 % of control (endpoint: median survival time, dose: 25.0 mg/kg/injection, schedule: Q01DX009 (ip), vehicle: saline); 94 % of control (endpoint: median survival time, dose: 50.0 mg/kg/injection, schedule: Q01DX009 (ip), vehicle: saline); 98 % of control (endpoint: median survival time, dose: 100.0 mg/kg/injection, schedule: Q01DX009 (ip), vehicle: saline); 97 % of control (endpoint: median survival time, dose: 200.0 mg/kg/injection, schedule: Q01DX009 (ip), vehicle: saline).
`COc1ccc(OCCOC(=O)Nc2ccc(Cl)cc2OC)cc1`: the T/C is 89 % of control under setting [12], 93 % of control under setting [10] and 93 % of control under setting [11].
Consider `CSc1ncnc2c1nnn2C1OC(COC(=O)c2ccccc2)C(OC(=O)c2ccccc2)C1OC(=O)c1ccccc1` (stereo unspecified), for which the T/C is 94 % of control (endpoint: median survival time, dose: 12.5 mg/kg/injection, schedule: Q01DX005 (ip), vehicle: Klucel (hydroxypropylcellulose) (HPC)); 104 % of control (endpoint: median survival time, dose: 25.0 mg/kg/injection, schedule: Q01DX005 (ip), vehicle: Klucel (hydroxypropylcellulose) (HPC)); 116 % of control and 123 % of control (endpoint: median survival time, dose: 50.0 mg/kg/injection, schedule: Q01DX005 (ip), vehicle: Klucel (hydroxypropylcellulose) (HPC)); 116 % of control (endpoint: median survival time, dose: 100.0 mg/kg/injection, schedule: Q01DX005 (ip), vehicle: Klucel (hydroxypropylcellulose) (HPC)); 164 % of control (endpoint: median survival time, dose: 400.0 mg/kg/injection, schedule: Q01DX005 (ip), vehicle: Klucel (hydroxypropylcellulose) (HPC)).
